Where “and” joins values, the source holds several entries; their conditions need not be identical. Equal values may be shown once.
Tests used:
Type in all cases: in vivo, human
[1] = tested on: ANG1; experiment: Serum angiogenesis marker, multiplex bead-based immunoassay (LEGENDplex); design: ANG1: unit not given here; settings: for ANG1: serum, duplicate wells
[2] = tested on: PECAM1/CD31; experiment: as above; settings: for PECAM_1: serum, duplicate wells
Procedure: Serum angiogenesis markers were quantified by multiplex bead-based immunoassays following provided instructions (LEGENDplex™, Biolegend, San Diego, CA/USA). For biochemical markers, the percentage change comparing before (day 1 0 h) with after (last day 9 h) ITPP treatment was calculated.

[3] = tested on: HIF1α; experiment: Immunohistochemistry of tumor tissue before vs after ITPP, one patient
Procedure: (§1) Samples were collected in 4% buffered formaldehyde, dehydrated, embedded in paraffin and cut into 5 µm sections and stained after antigen retrieval. Hematoxylin/eosin and Masson’s trichrome stains were performed according to standard protocols. The following antibodies were used for immunohistochemical staining: pan-B cytokeratin (CkpanB, Dako, M3515, dilution 1/50), HIF1α (Abcam, ab16066, dilution 1/400), HIF2α (Abcam, ab199, dilution 1/50), carbonic anhydrase 9 (CA9, Abcam, ab15086, dilution 1/3000), glucose transporter 1/SLC2A1 (GLUT1, Millipore, 07-1401, dilution 1/1000), PECAM1 / CD31 (Dako, M0823, dilution 1/10), ETS transcription factor (ERG, Roche, 790-4576, prediluted) and vimentin (VIM, Dako, M7020, dilution 1/250). For histological analyses, 5 random images of tumor areas of stained slides were taken at 40x magnification. Stained areas were isolated by color deconvolution and thresholding. Quantification of staining intensity was measured on thresholded areas, converted onto a scale from 0 (white, no staining) to 100 (black, completely stained) and compared between the sample taken before ITPP treatment and the one after. For calculation of percentage area stained, thresholded areas were compared to the complete area of the picture. ImageJ (V1.53c, National Institutes of Health, USA) was used for all histological analyses.
(§2) This analyses must be regarded with caution due to n=1!

[4] = tested on: carbonic anhydrase 9 (CA9); experiment: as above
Procedure: as §1, §2

[5] = tested on: HIF2α; experiment: as above; settings: patient nr. 21, CRLM, only weak staining
Procedure: as §1, §2

[6] = tested on: PECAM1/CD31; experiment: as above; settings: CD31 stain, group After (ITPP), one value per image field; threshold 0-90
Procedure: as §1, §2

[7] = tested on: SLC2A1/GLUT1; experiment: as above; settings: patient nr. 21, CRLM
Procedure: as §1, §2

[8] = tested on: Vimentin; experiment: as above
Procedure: as §1, §2

[9] = tested on: ERG; experiment: as above
Procedure: as §1, §2

[10] = following ITPP treatment, 27 patients
[11] = Patient 25, Cohort 8, PDAC, Day 3 post
[12] = Patient 25, Cohort 8, PDAC, Day 9 post
[13] = Patient 26, Cohort 8, PDAC, Day 3 post
[14] = Patient 26, Cohort 8, PDAC, Day 9 post
[15] = Patient 27, Cohort 8, CCC, Day 3 post
[16] = Patient 27, Cohort 8, CCC, Day 9 post
[17] = Patient 28, Cohort 8, CRLM, Day 3 post
[18] = Patient 28, Cohort 8, CRLM, Day 9 post

O=P1(O)OC2C3OP(=O)(O)OP(=O)(O)OC3C3OP(=O)(O)OP(=O)(O)OC3C2OP(=O)(O)O1 (centres unmarked) [ITPP, Myo-inositol trispyrophosphate]
Share of patients with reduced ANG1 [1, 10]: 51.9%
ANG1 [1, 11]: 692.38
ANG1 [1, 12]: 719.05 and 765.98
ANG1 [1, 13]: 143.21 and 130.63
ANG1 [1, 14]: 207.7 and 218.53
ANG1 [1, 15]: 904.42 and 799.6
ANG1 [1, 16]: 835.71 and 800.95
ANG1 [1, 17]: 981.48 and 747.77
ANG1 [1, 18]: 618.86 and 532.8
Share of patients with reduced PECAM1 [2, 10]: 66.7%
PECAM_1 [2, 11]: 261.09
PECAM_1 [2, 12]: 287.51 and 289.5
PECAM_1 [2, 13]: 298.56 and 289.5
PECAM_1 [2, 14]: 215.26 and 221.83
PECAM_1 [2, 15]: 350.64 and 331.88
PECAM_1 [2, 16]: 286.17 and 303.44
PECAM_1 [2, 17]: 299.11 and 271.68
PECAM_1 [2, 18]: 262.91 and 211.07
%Area ([3]; HIF1a stain, group After (ITPP), one value per image field, threshold 0-220): 60.518% and 62.226% and 71.026% and 45.098% and 63.507%
HIF1α staining, before vs after ITPP treatment ([3]; patient nr. 21, CRLM, only weak staining): no difference
%Area ([4]; CAIX stain, group After (ITPP), one value per image field, threshold 0-130): 0.006% and 0.014% and 0.943% and 0.008% and 0.048%
Expression of carbonic anhydrase 9 (CA9) after ITPP treatment ([4]; patient nr. 21, CRLM): decreased
HIF2α staining, before vs after ITPP treatment [5]: no difference
%Area [6]: 1.371% and 1.754% and 0.512% and 2.094% and 0.52%
Expression of SLC2A1/GLUT1 in cancer cells after ITPP treatment [7]: downregulated
%Area ([8]; Vim stain, group After (ITPP), one value per image field, threshold 0-160): 29.786% and 30.117% and 24.166% and 28.151% and 26.502%
Vimentin after ITPP administration ([8]; patient nr. 21, CRLM): decreased
%Area ([9]; Erg stain, group After (ITPP), one value per image field, threshold 0-130): 0.53% and 0.557% and 0.323% and 0.603% and 0.393%
ERG after ITPP treatment ([9]; patient nr. 21, CRLM): more abundant

From PMC8217170, “Phase Ib dose-escalation study of the hypoxia-modifier Myo-inositol trispyrophosphate in patients with hepatopancreatobiliary tumors” (Nature Communications, 2021)
